In BindingDB's records for doi:10.1021/jm030233b (Pharmacia, 2003):

Target: Prothrombin (Homo sapiens, UniProt P00734)
Assay: Thrombin Assay
Details: pH 8; 22 °C
Protocol: Human thrombin and substrate were added to a 96-well assay plate containing inhibitor in reaction buffer. […] All compounds were assayed in duplicate at seven concentrations. Percent inhibition at each concentration was calculated from OD405nm value from the experimental and control sample. IC50 values were calculated from a four-parameter logistic regression equation.

Structure (SMILES) | IC50 [µM]
N=C(N)c1ccc(CNC(=O)Cc2c(-c3ccccc3)ccc(NCCc3ccccc3)c2O)cc1 [N-[(4-carbamimidoylphenyl)methyl]-2-{2-hydroxy-6-phenyl-3-[(2-phenylethyl)amino]phenyl}acetamide] | 6.8
CC(C)=Nc1cc(O)c(-c2ccccc2)c(CC(=O)NCc2ccc(C(=N)N)cc2)c1O [N-[(4-carbamimidoylphenyl)methyl]-2-[3,6-dioxo-2-phenyl-5-(propan-2-ylamino)cyclohexa-1,4-dien-1-yl]acetamide] | > 30
N=C(N)c1ccc(CNC(=O)Cc2c(-c3cccc(N)c3)ccc(NCc3ccccc3)c2F)cc1 [2-[6-(3-aminophenyl)-3-(benzylamino)-2-fluorophenyl]-N-[(4-carbamimidoylphenyl)methyl]acetamide] | 10
N=C(N)c1ccc(CNC(=O)Cc2c(F)ccc(NS(=O)(=O)Cc3ccccc3)c2F)cc1 [N-[(4-carbamimidoylphenyl)methyl]-2-[2,6-difluoro-3-(phenylmethanesulfonamido)phenyl]acetamide] | 26.9
N=C(N)c1ccc(CNC(=O)Cc2c(F)ccc(NCCc3ccccc3)c2F)cc1 [N-[(4-carbamimidoylphenyl)methyl]-2-{2,6-difluoro-3-[(2-phenylethyl)amino]phenyl}acetamide] | 1.56
